Some test systems named below: CAKI-1 renal; MDA-MB-435; NCI-H226 lung; NCI-H460 lung; OVCAR-8 ovarian; SF-268 CNS; SK-MEL-2 melanoma; SR leukemia; T-47D breast; UACC-257 melanoma.
What all share (assay): NCI anticancer screen, dose series, 48 h

In PubChem BioAssay (NCI) one finds GI50 and TGI data, which are given here for 8 compounds.

Several values for one entry are separate records, joined by “and”; a condition that tells them apart may be missing. Identical values can stand only once.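 96-well plates; 48 h exposure; 5 concentrations. Endpoints by linear interpolation between flanking doses. Not reached: highest tested concentration assigned. GI50 is the concentration that inhibits growth by half. Definition used: TGI = concentration required for complete inhibition of growth.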 Bounds are passed on as bounds.

For `COc1ccc(/C=C\c2cc(OC)c(OC)c(OC)c2)cc1OCC(=O)Nc1nc2ccc(OC(F)(F)F)cc2s1`, the GI50 in the assay with CAKI-1 renal is 4.6 µM; with MDA-MB-435, 1.93 µM; in the assay with NCI-H226 lung, 4.3 µM; with NCI-H460 lung, 4.11 µM; with OVCAR-8 ovarian, 5 µM; in the assay on SF-268 CNS, 6.01 µM. The GI50 in the assay with SK-MEL-2 melanoma was 3.29 µM; in the assay on SR leukemia it was 3.55 µM; with T-47D breast it was 3.95 µM; in the assay on UACC-257 melanoma, 89.2 µM. Besides, the TGI is above 100 µM with CAKI-1 renal; 5.14 µM in the assay with MDA-MB-435; 62.2 µM with NCI-H226 lung; above 100 µM in the assay on NCI-H460 lung; above 100 µM with OVCAR-8 ovarian; above 100 µM in the assay on SF-268 CNS. Besides, the TGI in the assay with SK-MEL-2 melanoma, in the assay on SR leukemia, in the assay on T-47D breast and in the assay on UACC-257 melanoma was above 100 µM in each case.
Take `CCN1CCC(CC(=O)Nc2n[nH]c3nc(-c4cccs4)c(Br)cc23)CC1`: the GI50 with CAKI-1 renal is 4.29 µM; in the assay with MDA-MB-435 it was 5.35 µM; in the assay with NCI-H226 lung, 12.1 µM; in the assay on NCI-H460 lung, 10.1 µM; with OVCAR-8 ovarian it was 11.6 µM; in the assay with SF-268 CNS it was 11.5 µM. The GI50 in the assay on SK-MEL-2 melanoma was 6.24 µM; in the assay with SR leukemia, 11.2 µM; in the assay on T-47D breast it was 12.4 µM; in the assay with UACC-257 melanoma it was 5.58 µM. Besides, the TGI in the assay with CAKI-1 renal was above 25 µM; with MDA-MB-435, 14.5 µM; with NCI-H226 lung, above 25 µM; in the assay on NCI-H460 lung it was above 25 µM; in the assay on OVCAR-8 ovarian, above 25 µM; with SF-268 CNS, above 25 µM. Moreover, the TGI with SK-MEL-2 melanoma is 11.4 µM; with SR leukemia it was above 25 µM; in the assay on T-47D breast, above 25 µM; in the assay with UACC-257 melanoma it was 10.8 µM.
On to `C=C(C)[C@@H]1CC[C@]2(C(=O)NCCNCCNCCN)CC[C@]3(C)[C@H](CC[C@@H]4[C@@]5(C)CCC(=O)C(C)(C)[C@@H]5CC[C@]43C)[C@@H]12`, for which the GI50 in the assay on CAKI-1 renal was 5.87 µM; in the assay with MDA-MB-435 it was 8.7 µM; with NCI-H226 lung it was 7.74 µM; in the assay with NCI-H460 lung, 9.4 µM; with OVCAR-8 ovarian it was 8.41 µM; in the assay on SF-268 CNS, 7.53 µM. For the same compound, the GI50 is above 50 µM in the assay with SK-MEL-2 melanoma, 5.91 µM in the assay with SR leukemia, 7.52 µM with T-47D breast and 7.91 µM in the assay on UACC-257 melanoma. The TGI in the assay on CAKI-1 renal was 13.1 µM; with MDA-MB-435 it was 17.5 µM; in the assay with NCI-H226 lung it was 17.1 µM; with NCI-H460 lung, 18.1 µM; in the assay with OVCAR-8 ovarian, 16.2 µM; with SF-268 CNS, 15.9 µM. In addition, the TGI with SK-MEL-2 melanoma is above 50 µM; in the assay with SR leukemia, 20.1 µM; in the assay on T-47D breast, 18.7 µM; in the assay with UACC-257 melanoma, 18.3 µM.
In the case of `COc1ccc2c(c1)C(=O)c1c-2n(CCCN2CCOCC2)c(=O)c2cc([N+](=O)[O-])ccc12`, the GI50 with CAKI-1 renal, in the assay with MDA-MB-435, in the assay on NCI-H226 lung, in the assay on NCI-H460 lung, in the assay on OVCAR-8 ovarian and in the assay on SF-268 CNS was below 0.01 µM throughout. For the same compound, the GI50 with SK-MEL-2 melanoma was 0.0763 µM; in the assay with SR leukemia, below 0.01 µM; with T-47D breast it was below 0.01 µM; in the assay with UACC-257 melanoma it was 0.0504 µM. Also, the TGI with CAKI-1 renal was 0.53 µM; in the assay with MDA-MB-435 it was 11 µM; with NCI-H226 lung, 0.405 µM; with NCI-H460 lung, 0.069 µM; in the assay with OVCAR-8 ovarian, above 50.6 µM; with SF-268 CNS, above 100 µM. The values for the TGI in the assay with SK-MEL-2 melanoma, in the assay on T-47D breast and with UACC-257 melanoma were 3.95 µM, above 100 µM and 3.08 µM, respectively.
For `COc1cc(/C=C2\C(=O)Nc3ccccc32)cc(OC)c1OC`, the GI50 was 18.9 µM with CAKI-1 renal; 4.1 µM in the assay on MDA-MB-435; 26.1 µM in the assay on NCI-H226 lung; 11.8 µM in the assay with NCI-H460 lung; 25 µM in the assay on OVCAR-8 ovarian; 0.955 µM with SF-268 CNS. The GI50 in the assay with SK-MEL-2 melanoma is 17.5 µM; with SR leukemia it was 3.83 µM; in the assay with T-47D breast, above 100 µM; in the assay on UACC-257 melanoma it was 8.81 µM. Besides, the TGI in the assay with CAKI-1 renal is above 100 µM; in the assay with MDA-MB-435, 45.1 µM; in the assay on NCI-H226 lung, above 100 µM; in the assay on NCI-H460 lung, above 100 µM; in the assay with OVCAR-8 ovarian it was above 100 µM; in the assay with SF-268 CNS, above 100 µM. Also, the TGI is 82.6 µM with SK-MEL-2 melanoma, above 100 µM with SR leukemia, above 100 µM in the assay on T-47D breast and 54 µM in the assay with UACC-257 melanoma.
On to `O=C1C=CC(=O)c2c1ncc1c2nc2sccn21`, for which the GI50 in the assay with CAKI-1 renal was 19.5 µM; with MDA-MB-435, 16.3 µM; in the assay on NCI-H226 lung, 37.6 µM; in the assay on NCI-H460 lung, 27.2 µM; with OVCAR-8 ovarian, 30.5 µM; with SF-268 CNS, 18.5 µM. Also, the GI50 with SK-MEL-2 melanoma is 42.8 µM; in the assay on SR leukemia it was 3.53 µM; with T-47D breast it was 31.9 µM; in the assay on UACC-257 melanoma it was 20.2 µM. Further, the TGI in the assay with CAKI-1 renal was 42.5 µM; in the assay on MDA-MB-435 it was 39.2 µM; with NCI-H226 lung, above 100 µM; in the assay on NCI-H460 lung it was above 100 µM; in the assay with OVCAR-8 ovarian, above 100 µM; in the assay on SF-268 CNS it was above 100 µM. Moreover, the TGI in the assay on SK-MEL-2 melanoma is above 100 µM; in the assay with SR leukemia, 35.3 µM; with T-47D breast, above 100 µM; with UACC-257 melanoma, 37.2 µM.
On to `CO/C(=N\N=C\c1cccc(C(F)(F)F)c1)c1ccncc1`, for which the TGI with CAKI-1 renal was 9.48 µM; in the assay on MDA-MB-435, 6.17 µM and 25.5 µM; in the assay with NCI-H226 lung it was 27.4 µM; with NCI-H460 lung, 48.8 µM; with OVCAR-8 ovarian, above 100 µM; in the assay with SK-MEL-2 melanoma it was above 100 µM. In addition, the TGI in the assay on SR leukemia was 46.3 µM; in the assay with T-47D breast, above 100 µM; with UACC-257 melanoma, above 100 µM. For the same compound, the GI50 with MDA-MB-435 was 3.33 µM; in the assay on OVCAR-8 ovarian, 17.4 µM; in the assay on SK-MEL-2 melanoma, 22.6 µM; in the assay with SR leukemia it was 3.33 µM.
With `Oc1ccc(CN(Cc2ccc(C(F)(F)F)cc2)Cc2ccc(O)c3ncccc23)c2cccnc12`, the GI50 is 0.0428 µM with CAKI-1 renal; 0.0214 µM in the assay on MDA-MB-435; 0.0512 µM with NCI-H226 lung; below 0.01 µM in the assay on NCI-H460 lung; below 0.0142 µM with OVCAR-8 ovarian; 0.0487 µM in the assay on SF-268 CNS. Besides, the figures for the GI50 in the assay with SK-MEL-2 melanoma, with SR leukemia and in the assay with T-47D breast were 0.0232 µM, 0.04 µM and 0.028 µM, respectively. The TGI with MDA-MB-435 was above 100 µM; with NCI-H226 lung, 11.7 µM; with NCI-H460 lung, 0.111 µM; with OVCAR-8 ovarian, above 100 µM; in the assay on SF-268 CNS it was above 100 µM; with SK-MEL-2 melanoma, 0.0804 µM. For the same compound, the TGI with SR leukemia and in the assay on T-47D breast was above 100 µM throughout.
